Source: ChEMBL document CHEMBL5620345, “Metal binding pharmacophore click-derived discovery of new broad-spectrum metallo-β-lactamase inhibitors” (Eur J Med Chem, 2023)

Key:
[1] = Inhibition of recombinant his tagged IMP1 (unknown origin) expressed in Escherichia coli (DE3) cells using FC5 as substrate by microplate reader assay
[2] = Inhibition of recombinant NDM1 (unknown origin) expressed in Escherichia coli (DE3) cells using FC5 as substrate by microplate reader assay
[3] = Inhibition of recombinant VIM-1 (unknown origin) expressed in Escherichia coli (DE3) cells using FC5 as substrate by microplate reader assay
[4] = Inhibition of recombinant his tagged VIM-2 (unknown origin) expressed in Escherichia coli (DE3) cells using FC5 as substrate by microplate reader assay
[5] = Inhibition of recombinant VIM-5 (unknown origin) expressed in Escherichia coli (DE3) cells using FC5 as substrate by microplate reader assay
Escherichia coli [6] = experiment: Antibacterial activity against Escherichia coli BAA2452 expressing blaNDM-1 clinical isolates assessed as meropenem MIC incubated for 16 to 18 hrs by broth microdilution method; type: functional; settings: time 16-18 hrs
Enterobacterales [7] = experiment: Antibacterial activity against Carbapenem-Resistant Enterobacterales 19 expressing blaNDM-1 clinical isolates assessed as meropenem MIC incubated for 16 to 18 hrs by broth microdilution method; type: functional; settings: time 16-18 hrs
Klebsiella pneumoniae [8] = experiment: Antibacterial activity against Klebsiella pneumoniae BAA2470 expressing blaNDM-1 clinical isolates assessed as meropenem MIC incubated for 16 to 18 hrs by broth microdilution method; type: functional; settings: time 16-18 hrs
Escherichia coli [9] = experiment: Antibacterial activity against Escherichia coli C1580 expressing blaIMP-1 clinical isolates assessed as meropenem MIC incubated for 16 to 18 hrs by broth microdilution method; type: functional; settings: time 16-18 hrs
Escherichia coli [10] = experiment: Antibacterial activity against Escherichia coli C1541 expressing blaVIM-2 clinical isolates assessed as meropenem MIC incubated for 16 to 18 hrs by broth microdilution method; type: functional; settings: time 16-18 hrs
Escherichia coli [11] = experiment: Antibacterial activity against Escherichia coli BAA2452 expressing blaNDM-1 clinical isolates assessed as fold potentiation incubated for 16 to 18 hrs by broth microdilution method; type: functional; settings: time 16-18 hrs
Enterobacterales [12] = experiment: Antibacterial activity against Carbapenem-Resistant Enterobacterales 19 expressing blaNDM-1 clinical isolates assessed as fold potentiation incubated for 16 to 18 hrs by broth microdilution method; type: functional; settings: time 16-18 hrs
Klebsiella pneumoniae [13] = experiment: Antibacterial activity against Klebsiella pneumoniae BAA2470 expressing blaNDM-1 clinical isolates assessed as fold potentiation incubated for 16 to 18 hrs by broth microdilution method; type: functional; settings: time 16-18 hrs
Escherichia coli [14] = experiment: Antibacterial activity against Escherichia coli C1580 expressing blaIMP-1 clinical isolates assessed as fold potentiation incubated for 16 to 18 hrs by broth microdilution method; type: functional; settings: time 16-18 hrs
Escherichia coli [15] = experiment: Antibacterial activity against Escherichia coli C1541 expressing blaVIM-2 clinical isolates assessed as fold potentiation incubated for 16 to 18 hrs by broth microdilution method; type: functional; settings: time 16-18 hrs

Row | SMILES | IC50 [1] [µM] | IC50 [2] [µM] | IC50 [3] [µM] | IC50 [4] [µM] | IC50 [5] [µM] | MIC (Escherichia coli [6]) [mg/L] | MIC (Enterobacterales [7]) [mg/L] | MIC (Klebsiella pneumoniae [8]) [mg/L] | MIC (Escherichia coli [9]) [mg/L] | MIC (Escherichia coli [10]) [mg/L] | fold change (FC) (Escherichia coli [11]) | fold change (FC) (Enterobacterales [12]) | fold change (FC) (Klebsiella pneumoniae [13]) | fold change (FC) (Escherichia coli [14]) | fold change (FC) (Escherichia coli [15])
1 | Nc1cccc(-c2cn(-c3cccc(CP(=O)(O)O)c3)nn2)c1 | 1.96 | 7.27 | 2.21 | 0.092 | 0.019 | 32 | 16 | 128 | 2 | 4 | 4 | 4 | >1 | 16 | 4
2 | O=P(O)(O)Cc1cccc(-n2cc(-c3ccc(Br)cc3)nn2)c1 | 3.28 | 11.2 | 11.4 | 0.076 | 0.05 | 32 | 16 | 128 | 2 | 4 | 4 | 4 | >1 | 16 | 4
3 | CCCc1ccc(C(c2cccc(-n3cc(-c4cccc(N)c4)nn3)c2)P(=O)(O)O)cc1 (stereo not given) | 0.19 | 0.46 | 0.53 | 0.014 | 0.00056 | 16 | 8 | 64 | 2 | 2 | 8 | 8 | >2 | 16 | 8
4 | COc1ccc(C(c2cccc(-n3cc(-c4cccc(N)c4)nn3)c2)P(=O)(O)O)cc1 (stereo not given) | 3.25 | 8.09 | 1.24 | 0.052 | 0.025 | 16 | 8 | 64 | 1 | 2 | 8 | 8 | >2 | 32 | 8
5 | Cc1ccc(C(c2cccc(-n3cc(-c4cccc(N)c4)nn3)c2)P(=O)(O)O)cc1 (stereo not given) | 0.027 | 1.07 | 0.62 | 0.00082 | 0.001 | 8 | 8 | 64 | 1 | 1 | 16 | 8 | >2 | 32 | 16
6 | CC(C)(C)c1ccc(C(c2cccc(-n3cc(-c4cccc(N)c4)nn3)c2)P(=O)(O)O)cc1 (stereo not given) | 1.37 | 0.18 | 0.71 | 0.009 | 0.001 | 16 | 8 | 64 | 2 | 2 | 8 | 8 | >2 | 16 | 8
7 | Nc1ccccc1-c1cn(-c2cccc(CP(=O)(O)O)c2)nn1 | 6.5 | 7.71 | 5.61 | 0.013 | 0.51 | 32 | 8 | 128 | 2 | 1 | 4 | 8 | >1 | 16 | 16
8 | CCc1ccc(C(c2cccc(-n3cc(-c4cccc(N)c4)nn3)c2)P(=O)(O)O)cc1 (stereo not given) | 0.17 | 0.65 | 1.37 | 0.006 | 0.007 | 8 | 8 | 64 | 4 | 1 | 16 | 8 | >2 | 8 | 16
9 | Nc1cccc(-c2cn(-c3cccc(C(c4ccc(F)cc4)P(=O)(O)O)c3)nn2)c1 (stereo not given) | 0.7 | 2 | 0.44 | 0.006 | 0.001 | 16 | 8 | 64 | 2 | 0.5 | 8 | 8 | >2 | 16 | 32
10 | Nc1cccc(-c2cn(-c3cccc(C(c4ccc(-c5ccccc5)cc4)P(=O)(O)O)c3)nn2)c1 (stereo not given) | 0.15 | 0.18 | 0.35 | 0.00043 | 0.002 | 16 | 8 | 64 | 2 | 2 | 8 | 8 | >2 | 16 | 8
11 | Nc1cccc(-c2cn(-c3cccc(C(c4ccc(-c5ccc(Br)cc5)cc4)P(=O)(O)O)c3)nn2)c1 (stereo not given) | 12 | 4.9 | 1.71 | 0.008 | 0.002 | 8 | 8 | 64 | 1 | 2 | 16 | 8 | >2 | 32 | 8
12 | Nc1cccc(-c2cn(-c3cccc(C(c4ccc(Cl)cc4)P(=O)(O)O)c3)nn2)c1 (stereo not given) | 0.54 | 0.67 | 0.34 | 0.001 | 0.00043 | 16 | 8 | 64 | 2 | 1 | 8 | 8 | >2 | 16 | 16
13 | O=P(O)(O)Cc1cccc(-n2cc(-c3ccccc3Br)nn2)c1 | 1.9 | 5.2 | 7.16 | 0.72 | 0.095 | 32 | 16 | 128 | 2 | 4 | 4 | 4 | >1 | 16 | 4
14 | CSc1ccc(C(c2cccc(-n3cc(-c4cccc(N)c4)nn3)c2)P(=O)(O)O)cc1 (stereo not given) | 0.11 | 0.5 | 0.64 | 0.001 | 0.00012 | 16 | 8 | 64 | 2 | 1 | 8 | 8 | >2 | 16 | 16
15 | Nc1cccc(-c2cn(-c3cccc(C(c4ccc(Br)cc4)P(=O)(O)O)c3)nn2)c1 (stereo not given) | 0.44 | 0.66 | 0.2 | 0.007 | 0.003 | 16 | 8 | 64 | 4 | 1 | 8 | 8 | >2 | 8 | 16
16 | Nc1cccc(-c2cn(-c3cccc(C(c4cccc5ccccc45)P(=O)(O)O)c3)nn2)c1 (stereo not given) | 0.037 | 0.92 | 0.13 | 0.006 | 0.00029 | 16 | 4 | 64 | 0.5 | 1 | 8 | 16 | >2 | 64 | 16
17 | N#Cc1ccc(C(c2cccc(-n3cc(-c4cccc(N)c4)nn3)c2)P(=O)(O)O)cc1 (stereo not given) | 0.11 | 1.12 | 0.27 | 0.052 | 0.003 | 16 | 8 | 64 | 2 | 2 | 8 | 8 | >2 | 16 | 8
18 | CCCCc1ccc(C(c2cccc(-n3cc(-c4cccc(N)c4)nn3)c2)P(=O)(O)O)cc1 (stereo not given) | 0.295 | 0.15 | 0.46 | 0.015 | 0.001 | 8 | 8 | 64 | 1 | 2 | 16 | 8 | >2 | 32 | 8
